Reference: publication PMC9481151, “Discovery of new symmetrical and asymmetrical nitrile-containing 1,4-dihydropyridine derivatives as dual kinases and P-glycoprotein inhibitors: synthesis, in vitro assays, and in silico studies” (Journal of Enzyme Inhibition and Medicinal Chemistry, 2022)

Legend:
CCRF-CEM = experiment: NCI single dose (10 µM) SRB screen; format: cell-based, human; conditions: leukaemia, 48 h
HL-60(TB) = experiment: NCI single dose (10 µM) SRB screen; format: cell-based, human; conditions: leukaemia, 48 h
K-562 = experiment: NCI single dose (10 µM) SRB screen; format: cell-based, human; conditions: leukaemia, 48 h
MOLT-4 = experiment: NCI single dose (10 µM) SRB screen; format: cell-based, human; conditions: leukaemia, 48 h
RPMI-8226 = experiment: NCI single dose (10 µM) SRB screen; format: cell-based, human; conditions: leukaemia, 48 h
SR = experiment: NCI single dose (10 µM) SRB screen; format: cell-based, human; conditions: leukaemia, 48 h
A549/ATCC = experiment: NCI single dose (10 µM) SRB screen; format: cell-based, human; conditions: non-small cell lung cancer, 48 h
EKVX = experiment: NCI single dose (10 µM) SRB screen; format: cell-based, human; conditions: non-small cell lung cancer, 48 h
HOP-62 = experiment: NCI single dose (10 µM) SRB screen; format: cell-based, human; conditions: non-small cell lung cancer, 48 h
HOP-92 = experiment: NCI single dose (10 µM) SRB screen; format: cell-based, human; conditions: non-small cell lung cancer, 48 h
NCI-H226 = experiment: NCI single dose (10 µM) SRB screen; format: cell-based, human; conditions: non-small cell lung cancer, 48 h
NCI-H23 = experiment: NCI single dose (10 µM) SRB screen; format: cell-based, human; conditions: non-small cell lung cancer, 48 h
NCI-H322M = experiment: NCI single dose (10 µM) SRB screen; format: cell-based; conditions: non-small cell lung cancer, 48 h
NCI-H460 = experiment: NCI single dose (10 µM) SRB screen; format: cell-based, human; conditions: non-small cell lung cancer, 48 h
NCI-H522 = experiment: NCI single dose (10 µM) SRB screen; format: cell-based, human; conditions: non-small cell lung cancer, 48 h
COLO 205 = experiment: NCI single dose (10 µM) SRB screen; format: cell-based, human; conditions: colon cancer, 48 h
HCC-2998 = experiment: NCI single dose (10 µM) SRB screen; format: cell-based, human; conditions: colon cancer, 48 h
HCT-116 = experiment: NCI single dose (10 µM) SRB screen; format: cell-based, human; conditions: colon cancer, 48 h
HCT-15 = experiment: NCI single dose (10 µM) SRB screen; format: cell-based, human; conditions: colon cancer, 48 h
HT29 = experiment: NCI single dose (10 µM) SRB screen; format: cell-based, human; conditions: colon cancer, 48 h
KM12 = experiment: NCI single dose (10 µM) SRB screen; format: cell-based, human; conditions: colon cancer, 48 h
SW-620 = experiment: NCI single dose (10 µM) SRB screen; format: cell-based, human; conditions: colon cancer, 48 h
SF-268 = experiment: NCI single dose (10 µM) SRB screen; format: cell-based, human; conditions: CNS cancer, 48 h
SF-295 = experiment: NCI single dose (10 µM) SRB screen; format: cell-based, human; conditions: CNS cancer, 48 h
SF-539 = experiment: NCI single dose (10 µM) SRB screen; format: cell-based, human; conditions: CNS cancer, 48 h
SNB-19 = experiment: NCI single dose (10 µM) SRB screen; format: cell-based, human; conditions: CNS cancer, 48 h
SNB-75 = experiment: NCI single dose (10 µM) SRB screen; format: cell-based, human; conditions: CNS cancer, 48 h
U251 = experiment: NCI single dose (10 µM) SRB screen; format: cell-based, human; conditions: CNS cancer, 48 h
LOX IMVI = experiment: NCI single dose (10 µM) SRB screen; format: cell-based, human; conditions: melanoma, 48 h
MALME-3M = experiment: NCI single dose (10 µM) SRB screen; format: cell-based, human; conditions: melanoma, 48 h
M14 = experiment: NCI single dose (10 µM) SRB screen; format: cell-based, human; conditions: melanoma, 48 h
MDA-MB-435 = experiment: NCI single dose (10 µM) SRB screen; format: cell-based, human; conditions: melanoma, 48 h
SK-MEL-2 = experiment: NCI single dose (10 µM) SRB screen; format: cell-based, human; conditions: melanoma, 48 h
SK-MEL-28 = experiment: NCI single dose (10 µM) SRB screen; format: cell-based, human; conditions: melanoma, 48 h
SK-MEL-5 = experiment: NCI single dose (10 µM) SRB screen; format: cell-based, human; conditions: melanoma, 48 h
UACC-257 = experiment: NCI single dose (10 µM) SRB screen; format: cell-based, human; conditions: melanoma, 48 h
UACC-62 = experiment: NCI single dose (10 µM) SRB screen; format: cell-based, human; conditions: melanoma, 48 h
IGROV1 = experiment: NCI single dose (10 µM) SRB screen; format: cell-based, human; conditions: ovarian cancer, 48 h
OVCAR-3 = experiment: NCI single dose (10 µM) SRB screen; format: cell-based, human; conditions: ovarian cancer, 48 h
OVCAR-4 = experiment: NCI single dose (10 µM) SRB screen; format: cell-based, human; conditions: ovarian cancer, 48 h
OVCAR-5 = experiment: NCI single dose (10 µM) SRB screen; format: cell-based, human; conditions: ovarian cancer, 48 h
OVCAR-8 = experiment: NCI single dose (10 µM) SRB screen; format: cell-based, human; conditions: ovarian cancer, 48 h
NCI/ADR-RES = experiment: NCI single dose (10 µM) SRB screen; format: cell-based, human; conditions: ovarian cancer, 48 h
SK-OV-3 = experiment: NCI single dose (10 µM) SRB screen; format: cell-based, human; conditions: ovarian cancer, 48 h
786-0 = experiment: NCI single dose (10 µM) SRB screen; format: cell-based, human; conditions: renal cancer, 48 h
A498 = experiment: NCI single dose (10 µM) SRB screen; format: cell-based, human; conditions: renal cancer, 48 h
ACHN = experiment: NCI single dose (10 µM) SRB screen; format: cell-based, human; conditions: renal cancer, 48 h
CAKI-1 = experiment: NCI single dose (10 µM) SRB screen; format: cell-based, human; conditions: renal cancer, 48 h
RXF 393 = experiment: NCI single dose (10 µM) SRB screen; format: cell-based, human; conditions: renal cancer, 48 h
SN12C = experiment: NCI single dose (10 µM) SRB screen; format: cell-based, human; conditions: renal cancer, 48 h
TK-10 = experiment: NCI single dose (10 µM) SRB screen; format: cell-based, human; conditions: renal cancer, 48 h
UO-31 = experiment: NCI single dose (10 µM) SRB screen; format: cell-based, human; conditions: renal cancer, 48 h
PC-3 = experiment: NCI single dose (10 µM) SRB screen; format: cell-based, human; conditions: prostate cancer, 48 h
DU-145 = experiment: NCI single dose (10 µM) SRB screen; format: cell-based, human; conditions: prostate cancer, 48 h
MCF7 = experiment: NCI single dose (10 µM) SRB screen; format: cell-based, human; conditions: breast cancer, 48 h
MDA-MB-231 = experiment: NCI single dose (10 µM) SRB screen; format: cell-based, human; conditions: breast cancer, 48 h
HS578T = experiment: NCI single dose (10 µM) SRB screen; format: cell-based, human; conditions: breast cancer, 48 h
BT-549 = experiment: NCI single dose (10 µM) SRB screen; format: cell-based, human; conditions: breast cancer, 48 h
T-47D = experiment: NCI single dose (10 µM) SRB screen; format: cell-based, human; conditions: breast cancer, 48 h
MDA-MB-468 = experiment: NCI single dose (10 µM) SRB screen; format: cell-based, human; conditions: breast cancer, 48 h
NCI 60 cancer cell lines = experiment: NCI single dose (10 µM) SRB screen, mean over panel; format: cell-based, human; conditions: mean over 60 cell lines, 48 h
Staphylococcus aureus = experiment: Agar well diffusion method; conditions: relative to ciprofloxacin
Bacillus subtilis = experiment: Agar well diffusion method; conditions: relative to ciprofloxacin
Escherichia coli = experiment: Agar well diffusion method; conditions: relative to ciprofloxacin
Pseudomonas aeruginosa = experiment: Agar well diffusion method; conditions: relative to ciprofloxacin
Candida albicans = experiment: Agar well diffusion method; conditions: relative to clotrimazole
Aspergillus flavus = experiment: Agar well diffusion method

melting point: 157 to 159 °C
Structure (SMILES): COC(=O)C1=C(C)NC(C)=C(C(=O)OC(C)(C)C)C1c1cccc(C#N)c1 (racemic) [Compound 2c, (±)-3-Tert-butyl 5-Methyl 4-(3-cyanophenyl)-2,6-dimethyl-1,4-dihydropyridine-3,5-dicarboxylate]
GI% CCRF-CEM (CCRF-CEM): – (Only GI% ≥ 10 are shown)
GI% HL-60(TB) (HL-60(TB)): – (Only GI% ≥ 10 are shown)
GI% K-562 (K-562): – (Only GI% ≥ 10 are shown)
GI% MOLT-4 (MOLT-4): – (Only GI% ≥ 10 are shown)
GI% RPMI-8226 (RPMI-8226): 12%
GI% SR (SR): 15%
GI% A549/ATCC (A549/ATCC): – (Only GI% ≥ 10 are shown)
GI% EKVX (EKVX): – (Only GI% ≥ 10 are shown)
GI% HOP-62 (HOP-62): – (Only GI% ≥ 10 are shown)
GI% HOP-92 (HOP-92): 10%
GI% NCI-H226 (NCI-H226): – (Only GI% ≥ 10 are shown)
GI% NCI-H23 (NCI-H23): – (Only GI% ≥ 10 are shown)
GI% NCI-H322M (NCI-H322M): – (Only GI% ≥ 10 are shown)
GI% NCI-H460 (NCI-H460): – (Only GI% ≥ 10 are shown)
GI% NCI-H522 (NCI-H522): – (Only GI% ≥ 10 are shown)
GI% COLO 205 (COLO 205): – (Only GI% ≥ 10 are shown)
GI% HCC-2998 (HCC-2998): – (Only GI% ≥ 10 are shown)
GI% HCT-116 (HCT-116): – (Only GI% ≥ 10 are shown)
GI% HCT-15 (HCT-15): – (Only GI% ≥ 10 are shown)
GI% HT29 (HT29): – (Only GI% ≥ 10 are shown)
GI% KM12 (KM12): – (Only GI% ≥ 10 are shown)
GI% SW-620 (SW-620): – (Only GI% ≥ 10 are shown)
GI% SF-268 (SF-268): – (Only GI% ≥ 10 are shown)
GI% SF-295 (SF-295): – (Only GI% ≥ 10 are shown)
GI% SF-539 (SF-539): – (Only GI% ≥ 10 are shown)
GI% SNB-19 (SNB-19): – (Only GI% ≥ 10 are shown)
GI% SNB-75 (SNB-75): 27%
GI% U251 (U251): – (Only GI% ≥ 10 are shown)
GI% LOX IMVI (LOX IMVI): – (Only GI% ≥ 10 are shown)
GI% MALME-3M (MALME-3M): – (Only GI% ≥ 10 are shown)
GI% M14 (M14): – (Only GI% ≥ 10 are shown)
GI% MDA-MB-435 (MDA-MB-435): – (Only GI% ≥ 10 are shown)
GI% SK-MEL-2 (SK-MEL-2): – (Only GI% ≥ 10 are shown)
GI% SK-MEL-28 (SK-MEL-28): – (Only GI% ≥ 10 are shown)
GI% SK-MEL-5 (SK-MEL-5): – (Only GI% ≥ 10 are shown)
GI% UACC-257 (UACC-257): – (Only GI% ≥ 10 are shown)
GI% UACC-62 (UACC-62): – (Only GI% ≥ 10 are shown)
GI% IGROV1 (IGROV1): – (Only GI% ≥ 10 are shown)
GI% OVCAR-3 (OVCAR-3): – (Only GI% ≥ 10 are shown)
GI% OVCAR-4 (OVCAR-4): – (Only GI% ≥ 10 are shown)
GI% OVCAR-5 (OVCAR-5): – (Only GI% ≥ 10 are shown)
GI% OVCAR-8 (OVCAR-8): – (Only GI% ≥ 10 are shown)
GI% NCI/ADR-RES (NCI/ADR-RES): – (Only GI% ≥ 10 are shown)
GI% SK-OV-3 (SK-OV-3): – (Only GI% ≥ 10 are shown)
GI% 786-0 (786-0): – (Only GI% ≥ 10 are shown)
GI% A498 (A498): – (Only GI% ≥ 10 are shown)
GI% ACHN (ACHN): – (Only GI% ≥ 10 are shown)
GI% CAKI-1 (CAKI-1): 15%
GI% RXF 393 (RXF 393): – (Only GI% ≥ 10 are shown)
GI% SN12C (SN12C): – (Only GI% ≥ 10 are shown)
GI% TK-10 (TK-10): – (Only GI% ≥ 10 are shown)
GI% UO-31 (UO-31): – (Only GI% ≥ 10 are shown)
GI% PC-3 (PC-3): 18%
GI% DU-145 (DU-145): – (Only GI% ≥ 10 are shown)
GI% MCF7 (MCF7): 13%
GI% MDA-MB-231 (MDA-MB-231): – (Only GI% ≥ 10 are shown)
GI% HS578T (HS578T): – (Only GI% ≥ 10 are shown)
GI% BT-549 (BT-549): – (Only GI% ≥ 10 are shown)
GI% T-47D (T-47D): 12%
GI% MDA-MB-468 (MDA-MB-468): – (Only GI% ≥ 10 are shown)
Mean GI% (NCI 60 cancer cell lines): 0%
% activity index, S. aureus (Staphylococcus aureus): – (Values below 25 are of limited value and not shown as they refer either to inactive or non-diffusing compounds)
% activity index, B. subtilis (Bacillus subtilis): – (Values below 25 are of limited value and not shown as they refer either to inactive or non-diffusing compounds)
% activity index, E. coli (Escherichia coli): – (Values below 25 are of limited value and not shown as they refer either to inactive or non-diffusing compounds)
% activity index, P. aeruginosa (Pseudomonas aeruginosa): – (Values below 25 are of limited value and not shown as they refer either to inactive or non-diffusing compounds)
% activity index, C. albicans (Candida albicans): – (Values below 25 are of limited value and not shown as they refer either to inactive or non-diffusing compounds)
zone of inhibition at 1000 µg/mL (Aspergillus flavus; Aspergillus flavus, 24 h, read-out: Diameter of inhibition zone, A. flavus): 7 mm
% activity index, A. flavus (Aspergillus flavus; relative to clotrimazole): 28%
